Data published in paper PMC2810227, “3-O-Methylfunicone, a Selective Inhibitor of Mammalian Y-Family DNA Polymerases from an Australian Sea Salt Fungal Strain” (Marine Drugs, 2009).

How the values were obtained:
Taq pol = target: T1, Taq pol (Thermus aquaticus, UniProt P19821); experiment: DNA polymerase assay, Taq pol; assay type: biochemical; details: 100 μM; 74 °C
T1 construct: purchased Takara Bio (Tokyo, Japan)
From the text: Pol α was purified from calf thymus by immuno-affinity column chromatography, as described by Tamai et al.. Recombinant rat pol β was purified from E. coli JMpβ5, as described by Date et al.. The human pol γ catalytic gene was cloned into pFastBac. Histidine-tagged enzyme was expressed using the BAC-TO-BAC HT Baculovirus Expression System according to the supplier’s manual (Life Technologies, MD, USA) and purified using ProBoundresin (Invitrogen Japan, Tokyo, Japan). Human pols δ and ɛ were purified by nuclear fractionation of human peripheral blood cancer cells (Molt-4) using the second subunit of pols δ and ɛ-conjugated affinity column chromatography, respectively. A truncated form of human pol η (residues 1–511) tagged with His6 at its C-terminal was expressed in E. coli cells and purified as described by Kusumoto et al.. A recombinant mouse pol ι tagged with His6 at its C-terminal was expressed and purified by Ni-NTA column chromatography as described elsewhere (Masutani et al., in preparation). […]
The compounds were dissolved in distilled dimethyl sulfoxide (DMSO) at various concentrations and sonicated for 30 sec. […] Activity without the inhibitor was considered 100%, and the remaining activity at each concentration of the inhibitor was determined relative to this value. […]

UV-treated HeLa cells = experiment: UV-treated clonogenic assay; assay type: cell-based, human; details: 10 J/m^2 UV
Description: Figure 5. (A) Human cancer cell growth inhibition dose-response curves of 3-O-methyl-funicone (1). Various concentrations (0 to 150 μM) of compound 1 were incubated with human colon carcinoma (HCT116) cells (circle) and human cervix carcinoma (HeLa) cells (square) for 24 h. Rate of cell growth was determined by MTT assay as described in the Experimental section. Data are shown as the means ± SEM of five independent experiments. (B) Clonogenic survival of UV-treated HeLa cells by compound 1. Various concentrations (0 to 100 μM) of compound 1 were incubated with 10 J/m^2 UV-treated (closed circle) or untreated (open circle) HeLa cells. After 7 days, the number of colonies in each treatment group was counted. Values are the means ± SEM of two independent experiments.
For clonogenic assay, 600 cells of HeLa were seeded on 10-cm plates and allowed to grow for 24 h before 10 J/m^2 UV irradiation treatment. The cells were then treated with various concentrations of compound 1 for 24 h. The cells were then washed with PBS and fresh medium was added for an additional 7-day incubation in a humidified 10% CO2 incubator at 37 °C. […] The number of colonies in each treatment group was counted, and the cell survival data were presented as percentage of the colony numbers of treated/untreated cells.

T1 sequence (P19821 whole entry): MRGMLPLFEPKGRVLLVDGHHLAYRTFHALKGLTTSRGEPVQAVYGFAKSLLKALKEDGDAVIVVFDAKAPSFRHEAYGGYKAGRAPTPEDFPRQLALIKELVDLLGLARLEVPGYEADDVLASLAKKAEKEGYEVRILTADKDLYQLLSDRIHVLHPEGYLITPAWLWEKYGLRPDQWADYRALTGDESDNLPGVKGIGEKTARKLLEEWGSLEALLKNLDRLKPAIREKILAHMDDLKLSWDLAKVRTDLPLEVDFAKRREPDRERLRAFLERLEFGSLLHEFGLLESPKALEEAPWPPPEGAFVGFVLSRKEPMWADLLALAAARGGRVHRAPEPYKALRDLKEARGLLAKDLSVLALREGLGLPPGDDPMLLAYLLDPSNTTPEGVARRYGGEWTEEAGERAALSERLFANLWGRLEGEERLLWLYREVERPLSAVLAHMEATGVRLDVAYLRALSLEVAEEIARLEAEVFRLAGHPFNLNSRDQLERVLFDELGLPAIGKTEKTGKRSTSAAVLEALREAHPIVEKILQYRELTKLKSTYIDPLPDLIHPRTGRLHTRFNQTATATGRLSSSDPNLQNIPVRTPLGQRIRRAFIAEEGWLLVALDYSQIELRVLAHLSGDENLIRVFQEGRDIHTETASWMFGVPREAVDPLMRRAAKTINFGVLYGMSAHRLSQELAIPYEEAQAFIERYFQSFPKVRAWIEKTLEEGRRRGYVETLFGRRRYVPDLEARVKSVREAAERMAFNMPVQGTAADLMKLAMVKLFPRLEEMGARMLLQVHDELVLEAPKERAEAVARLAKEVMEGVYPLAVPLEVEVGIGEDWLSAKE

Question: How did the “effect on Taq pol activity” value (Taq pol) turn out when `C/C=C/c1occ(C(=O)c2c(OC)cc(OC)cc2C(=O)OC)c(=O)c1OC` [compound 1, 3-O-methylfunicone] was run?
Answer: The value was “no effect”.

Question: And the “inhibiting clonogenic survival effect on UV exposed cells versus non-exposed cells” value (UV-treated HeLa cells; 100 μM, HeLa, 7 days)?
Answer: The value was 4.3 fold.

Question: And the “HeLa cell UV-sensitivity” value (UV-treated HeLa cells; 0 to 100 μM)?
Answer: The value was “significantly enhanced”.
